Some results are limits rather than exact numbers.

`CC(=O)Nc1ccc(C2COc3cc(O)c(O)cc3C2)cc1` (stereo unspecified) displayed a melting point of 201 to 203 °C.

As for `CCOC(=O)C(O[Si](C)(C)C)C(O[Si](C)(C)C)c1cc(OC)c(OC)cc1[N+](=O)[O-]` (stereo unspecified), the melting point is 151 to 153 °C.

Consider `COc1ccc(C2=NN(CCCCBr)C(=O)[C@H]3CC=CC[C@@H]23)cc1OC` (relative stereo), for which the melting point is 102 to 103 °C.

In the case of `OC(c1ccccc1)(c1ccccc1)C(c1ccc(OCc2ccccc2)cc1)n1ccnc1` (stereo unspecified), the melting point was 204 °C.

Regarding `CON=C(N)Nc1nccc(C)n1`, the melting point was found to be 152 °C.

With `C[C@]12CCC(=O)N[C@@H]1CCc1cc(-c3cccc4ccccc34)ccc12`, the melting point lay in the range of 247 to 248 °C.

For the compound `CON=C(C)COc1c(-c2ccc(S(C)(=O)=O)cc2)cnn(-c2ccc(F)c(F)c2)c1=O`, the melting point was in the range of 143 to 145 °C.

On to `CCN1C(=O)N(CC2CC2)c2ccc(Cl)cc2C1c1ccccc1` (stereo unspecified), for which the melting point lay within 88 to 90 °C.

On to `O=C(Nc1ccccc1)C1CCNCC1`, for which the melting point fell in the range of 121 to 127 °C.

Compound `Cc1cn(C2CC(F)C(CO)O2)c(=S)[nH]c1=S` (stereo unspecified) showed a melting point of 164 to 165 °C.

In the case of `Cc1nc(-c2ccccc2)nc(-c2cccc([N+](=O)[O-])c2)c1CNC(N)=S`, the melting point was 227 to 229 °C.

In the case of `CCc1noc(-c2cc3c(cn2)[nH]c2cccc(Oc4ccc(Cl)cn4)c23)n1`, the melting point lay in the range of 259 to 260 °C.

`COc1ccc(N2C(=O)C3=C(SCCS3)C2CC(=O)N2CCCCC2)cc1` (stereo unspecified): the melting point is 163 to 164 °C.

Consider `N#CC1=C2N(Cc3ccc(Cl)nc3)CCN2C2CCC1O2` (stereo unspecified), for which the melting point fell in the range of 125 to 127 °C.

As to `CC1Cc2c(c(Br)cc(F)c2-n2c(=O)cc(C(F)(F)F)n(C)c2=O)O1` (stereo unspecified), the melting point lay within 66 to 75.5 °C.

For `O=C(OCc1ccccc1)N1CCN(c2ccc(-c3ccnc(Cl)n3)cn2)CC1`, the melting point lay in the range of 145 to 147 °C.

In the case of `CCn1c(C)nc2cc(Sc3cccc4cnccc34)c([N+](=O)[O-])cc21`, the melting point was 236 to 242 °C.

Compound `CNC(=O)c1cc(-c2ccc(OC)cc2)nn(C)c1=O` yielded a melting point of 150 to 151 °C.

For `CN(c1cccc2cc(C(=O)NCC3(SCc4ccccc4)CCC4(CC3)OCCO4)[nH]c12)S(=O)(=O)c1cccs1`, the melting point was in the range of 211 to 212 °C.

`NCCCc1ccc(OCCC2Oc3ccccc3N(Cc3cccc(Cl)c3)C2=O)cc1` (stereo unspecified) registered a melting point of 109 to 111 °C.

Regarding `c1ccc(-c2ncc(-c3cnc(-c4ccccn4)[nH]3)cn2)cc1`, the melting point turned out to be 262 °C.

In turn, `C[Si](C)(C)COc1cc([N+](=O)[O-])ccc1N` came in with a melting point of 87 °C.

`COc1ccc2[nH]cc(C(C)N3CCCCC3=O)c2c1` (stereo unspecified) returned a melting point of 150 °C.

Turning to `O=c1[nH]c2ccccc2n1CCCN1CCN(C(c2ccccc2)c2ccccn2)CC1` (stereo unspecified), the melting point was 142 °C.

`CCCCCCCCCCCCCCCc1cccc(OC)c1C(=O)O` gave a melting point of 65 to 72 °C.

As for `CN(C)CC(=O)Nc1ccc2[nH]c(=O)c3ccccc3c2c1`, the melting point was over 300 °C.

On to `CCc1nn2c(N3CCN(C)CC3)cc(OCCO)nc2c1S(=O)(=O)c1ccccc1`, for which the melting point fell in the range of 153 to 154 °C.

`Fc1ccc2[nH]c3c(c2c1)CN(CCCc1cccnc1)CC3` registered a melting point of 215 to 218 °C.

In turn, `COC(=O)c1nc(C)c(F)c(N)c1Cl` yielded a melting point of 113 to 114 °C.

As for `Cc1ccc(Cn2ccc(CN3CCC(c4ccccc4)(c4ccccc4)CC3)n2)cc1C`, the melting point fell in the range of 139 to 140 °C.

`O=C(O)c1ccc2c(c1)Sc1ccccc1N=C2N1CCOCC1` had a melting point of 267 to 269 °C.

As to `CC(=O)NCCC(C)c1ccc(-c2ccc(Cl)cc2)cc1` (stereo unspecified), the melting point was in the range of 118 to 120 °C.

On to `O=C1C(=Cc2ccc(Cl)c(Cl)c2)CSCC1=Cc1ccc(Cl)c(Cl)c1`, for which the melting point lay within 151 to 152 °C.

The compound `CCCCc1nc(CO)c(C(=O)ON2C(=O)CCC2=O)n1Cc1ccc(-c2ccccc2C(=O)OC(C)(C)C)cc1` showed a melting point of 107 to 109 °C.

`CCCCCCCCCCCCc1ccccc1C(Sc1nnnn1CCCC(=O)O)C(=O)O` (stereo unspecified): the melting point was 86 to 88 °C.

On to `COc1nc2ccnn2c2ncccc12`, for which the melting point turned out to be 154 °C.

As for `COc1cccc(-c2cc(=O)c3cc(OCCCCCN4CCC(O)CC4)ccc3o2)c1`, the melting point lay within 115 to 116 °C.

`CSCCC(=O)Nc1ccc(-n2nc(C(F)(F)F)cc2C(F)(F)F)cc1` came in with a melting point of 122 to 123 °C.

Take `CCCn1c(=O)c2c(nc(C=O)n2C)n(CCC)c1=O`: the melting point stood at 130 °C.

`COC(=O)C(Sc1ccccc1)c1ccc(Oc2ccc(Cl)cc2)cc1` (stereo unspecified) displayed a melting point of 64 to 68.5 °C.

For `O=C(O)c1ccc(-c2ccc(F)cc2)cc1`, the melting point was 138 to 141 °C.

`Clc1cc(N2CCC3(CC2)OCCO3)nc(N2CCC3(CC2)OCCO3)n1` gave a melting point of 130 to 131 °C.

Compound `C[C@@H]1NC(=O)OC1(c1ccccc1)c1ccccc1` came in with a melting point of 264 to 266 °C.

Compound `COc1cc(N)cc([N+](=O)[O-])c1OC` came in with a melting point of 129 to 131 °C.

Take `CN(C)CCc1ccc(O)c2[nH]ncc12`: the melting point was 223 to 227 °C.

On to `COC(=O)c1ccc(-c2n[nH]c3c2Cc2ccccc2-3)cc1`, for which the melting point lay within 224 to 226 °C.

Turning to `CS(=O)(=O)c1ccc(-c2cc(CCO)sc2-c2ccc(F)cc2)cc1`, the melting point was in the range of 102 to 108 °C.

Consider `COc1cc2c(c3c1OC(C)(C)C3)C(c1ccc(-c3ccc(NC(C)=O)cc3)cc1)=NC(C)(C)C2`, for which the melting point lay within 128 to 132 °C.

`CCCCc1ccc(-c2cc(Cl)c(C#N)cn2)cc1` had a melting point of 107 °C.

In turn, `CC(=O)N1CCC(CNCc2ccc(C=CC(=O)Nc3ccc(-c4ccc(Cl)cc4)cc3)cc2)CC1` gave a melting point of 225 to 226 °C.

In turn, `CCCn1cc(NC(=O)C(N)c2ccc3c(c2)C(C)(C)CCC3(C)C)cc1C(=O)OC` (stereo unspecified) displayed a melting point of 152 to 153 °C.

The compound `NS(=O)(=O)c1ccc(S(=O)(=O)N2CCc3cccc(-c4ccc(F)cc4)c32)cc1` gave a melting point of 189 to 190 °C.

`CON=C(C(=O)OC(C)C)c1ccccc1CBr` had a melting point of 76 to 77 °C.

The compound `Cc1nccn1-c1ccc(COc2cccc(C3(C#N)CCOCC3)c2)cc1` yielded a melting point of 153 to 154 °C.

Consider `CCN(C)c1nc2sc3c(NCc4ccncc4)ncnc3c2c2c1CCC(C)(C)C2`, for which the melting point was found to be 207 °C.

`COC(=O)N1C[C@@H](C#N)[C@H](c2ccc(OC)c(OC3CCCC3)c2)C1` (relative stereo) had a melting point of 101 to 104 °C.

The compound `Nc1nc2c(ncn2CCOCP(=O)(O)O)c(=O)[nH]1` gave a melting point of over 260 °C.

`COc1ccc(CC2CNC(=O)N2)cc1O` (stereo unspecified) registered a melting point of 192 to 202 °C.

Consider `CNC(=S)NCC1=C(n2ccccc2=O)c2cc([N+](=O)[O-])ccc2OC1(C)C`, for which the melting point is 225 °C.

Consider `Cc1c2c(nn1C(C)C)c(N)nc1ccccc12`, for which the melting point was in the range of 221 to 222 °C.

The compound `O=C(O)c1nc(NCC(c2ccccc2)c2ccccc2)c2nc[nH]c2n1` yielded a melting point of 241 to 249 °C.

`Cc1cc(F)cc(Oc2ccc([C@@H]3CCCN4CCS(=O)(=O)N=C34)cc2)c1` gave a melting point of 158 to 159 °C.

`Cn1c(Cl)cc(=O)n(C2CCCCC2)c1=O`: the melting point lay within 132 to 133 °C.

In the case of `C/C(=C\c1ccc(OC(C)C)cc1Oc1ncc(C(F)(F)F)cc1Cl)C(=O)NS(=O)(=O)NC1CCC(C)CC1` (stereo unspecified), the melting point amounted to 177 °C.

`ClCSc1ccccc1Br` had a melting point of 28 to 30 °C.

As for `Cn1c(=O)ccc2c(-c3ccccc3)nccc21`, the melting point was 190 to 192 °C.

`O=C1NCc2c1cc1ccc3c(c1c2-c1ccc(F)cc1)OCO3`: the melting point lay in the range of 294 to 297 °C.

In turn, `COCCCCN1C(=O)N(c2ccc(C#N)c(C(F)(F)F)c2)C(=O)C1(C)C` gave a melting point of 80 to 81 °C.

With `O=C1CCC(N2CCN(Cc3ccccc3)CC2)CC1`, the melting point lay in the range of 83 to 85 °C.

For the compound `COc1cc(Cl)nnc1NS(=O)(=O)c1ccc(Cl)s1`, the melting point was in the range of 120 to 122 °C.

In turn, `CCOC(=O)C(C)Oc1ccc(-c2nc(-c3ccc(C)cc3C)nc(-c3ccc(C)cc3C)n2)c(O)c1` (stereo unspecified) showed a melting point of 120 to 122 °C.

The compound `O=C(NCl)c1cccc(C(=O)NCl)c1` gave a melting point of 73.5 to 75 °C.

`COC(=O)c1ccc(C#N)cc1Cl` had a melting point of 90 to 92 °C.

Consider `CCCCCCCCCC(=O)CCC(C)=O`, for which the melting point lay within 52 to 53 °C.

As for `CCCCc1nc(C(C)O)c(C#N)n1Cc1ccc(-c2ccccc2C(=O)O)cc1` (stereo unspecified), the melting point was in the range of 200 to 201 °C.

In turn, `O=C(Cc1ccncn1)c1ccc(Cl)cc1` gave a melting point of 110 °C.

As to `CNc1cccc(NS(=O)(=O)c2ccc(N)cc2)c1`, the melting point is 134 to 135 °C.

For the compound `CC(=O)OCC1CCn2c(c(C3=C(c4cn(C)c5ccccc45)C(=O)OC3=O)c3ccccc32)C1` (stereo unspecified), the melting point fell in the range of 174 to 178 °C.

`CCn1ncc2c3noc(-c4ccc(C(F)(F)F)cc4)c3cnc21` registered a melting point of 243 to 245 °C.

In the case of `CC(=O)Nc1cc(OS(=O)(=O)c2ccc(C)cc2)nc(=N)n1OC(C)=O`, the melting point was 196 to 200 °C.

Take `COC(=O)c1cc2cccc(OC)c2cc1O`: the melting point was 182 °C.

On to `Cc1cc(NCCNCC(O)COc2ccccc2)c2ccccc2n1` (stereo unspecified), for which the melting point was 151 to 152 °C.

In turn, `CCN(CC)C(=O)c1ccnc(Br)c1` displayed a melting point of 200 to 203 °C.

Regarding `COC(=O)COc1cccc2c(CNS(=O)(=O)CCOc3ccccc3)coc12`, the melting point was 83 to 84 °C.

Compound `CC(C)(C)OC(=O)CN1CCN[C@@H](Cc2ccc(OC(C)(C)C)cc2)C1=O` came in with a melting point of 124 to 126 °C.

Compound `CC(=O)NC[C@H]1CN(c2ccc3c(c2)CCSc2cn[nH]c2-3)C(=O)O1` had a melting point of 186 to 187 °C.

`COc1ccc2c(c1)c(COC(C)(C)C(=O)O)nn2Cc1ccccc1` yielded a melting point of 128 to 130 °C.

For the compound `COC(=O)c1c(N)ccc([N+](=O)[O-])c1C`, the melting point fell in the range of 92 to 94 °C.

In turn, `O=C(O)Cc1c(C(=O)c2cccnc2)[nH]c2cc(Cl)ccc12` registered a melting point of 267 to 268 °C.

For the compound `c1ccc(-c2cc3nnc(-c4cnccn4)n3nc2OCc2nc[nH]n2)cc1`, the melting point came out at 255 °C.

In the case of `COc1nnc2c(=O)c3ccccc3ccn12`, the melting point is 149 to 150 °C.
